Experimental data taken from patent publication US20060183221A1, “Method for neural differentiation of embryonic stem cells using protease passaging techniques” (priority 2003, published 2006).
Entries after “also recorded” stand apart in the source; their conditions may differ.

Experiments:
Oct4 = Oct4 expression by immunoblotting in EB8 stage ES cells incubated with S18; type: cell-based, mouse
Procedure: In vitro differentiating ES cells at stage EB8 were incubated for 24-48 hours with 75 μM S18, or 35 μM N-acyl sphingosine or other ceramide analogs. Protein was isolated from cells incubated with S18 for 24 hours and from untreated cells, separated by SDS-PAGE, and the expression of Oct4 was analyzed by immunoblotting.

sfEBMs in suspension = experiment: S18 treatment of essentially serum free embryoid bodies (sfEBMs) in suspension, histology and immunocytochemistry; type: cell-based, human
Procedure: Essentially serum free embryoid bodies (sfEBMs) were generated as described in Example 6, and were exposed to S18 at different stages of their development in order to assess the timing of depletion of high Oct4 expressing cells, and in order to determine when neural rosettes could be selected. The sfEBMs in suspension were treated with 10 μM S18 in 50% DMEM/F12, 50% MEDII, supplemented with 1×N2, Glutamine (20 mM), penicillin (0.5 U/ml), and streptomycin (0.5 U/ml) for varying amounts of time, and the sfEBMs were then evaluated histologically and by immunocytochemistry.
Essentially serum free embryoid bodies were derived from protease passaged cells and grown in the presence of 50% MEDII conditioned medium. The embryoid bodies were exposed to 10 μM S18 in the same medium from day 6 to 9 after derivation. At day 9 the S18 treated sfEBMs and matched control sfEBMs not exposed to S18 were fixed, embedded in plastic, cut to 3 micron sections and stained with DAPI to enable the precise determination of the proportion of the total healthy nuclei of an sfEBM that were rosette cell nuclei.
This material was exposed to 10 μM S18 in 50% MEDII medium for 2 days, followed by manual passaging, and an additional 4 days in 10 μM S18 in the same medium. […] The non-rosette regions of the sfEBM fragmented when manipulated and released extensive stringy material that was indicative of genomic DNA from lysed cells. […] The rosette pieces were incubated in 10 μM S18 for a further 4 days, and the medium was then switched to 50% DMEM/F12, 50% MEDII, supplemented with 1×N2, and 4 ng/ml FGF-2 at day 20 after the initial derivation of the embryoid bodies.
At day 21 some ceramide selected sfEBMs were seeded onto polyornithine/laminin coated slides, cultured in the same medium for an additional 8 days, and fixed for immunostaining. These seeded pieces developed as rosette cultures and mats of neurons were observed differentiating from these precursors.
Essentially serum free embryoid bodies were derived from manually passaged cells, or protease passaged cells. EBs derived from protease passaged cells were formed in the presence of 50% MEDII conditioned medium. The embryoid bodies were exposed to 10 μM S18 in the same medium from day 6 to 9 after derivation. At day 9 the S18 treated sfEBMs matched control sfEBMs not exposed to S18, and matched control manually passaged sfEBs were sectioned to enable the precise determination of the proportion of the total healthy nuclei of an sfEBM that were rosette cell nuclei. The serum free embryoid bodies were embedded using the Immuno-Bed kit (Polysciences, Inc.). Serum free embryoid bodies were rinsed with 1×PBS and fixed in 4% paraformaldehyde, 4% sucrose in 1×PBS for 30 minutes at 4° C. The cells were then washed in 1×PBS and stored at 4° C. PBS was removed and the embryoid bodies were dehydrated by incubation in a series of 25%, 50%, 75% Ethanol/PBS for 5 minutes at room temperature, followed by 100% Ethanol. Infiltration solution was made by adding 0.25 g Benzoyl Peroxide to 20 ml Immuno-Bed Solution A. The ethanol was removed from the serum free embryoid bodies and 1 ml infiltration solution was added. After one hour, the infiltration solution was changed for three 20 min incubations. For embedding, 1 ml solution B (accelerator) was added to 25 ml fresh infiltration solution. The infiltration solution was removed from the serum free embryoid bodies and 0.5 ml embedding solution was added. The samples were transferred to a mold, a block holder was added and the mold was placed at 4° C. to set. 3 micron sections were cut using a Leica microtome, and were stained with DAPI.

[1] = tested on: seeded sfEBMs derived from domed HESC colonies; experiment: S18 treatment of seeded serum free embryoid bodies (sfEBMs), cell death by morphology and DAPI staining; type: cell-based, human
Text: sfEBMs were derived from domed HESC colonies, grown in suspension for 24 days with one passage, and seeded to polyornithine/laminin coated chamber slides in DMEM/F12, supplemented with 1×N2 (Gibco), and 1% FCS.
Apoptosis in seeded serum free embryoid bodies was monitored by morphological observation of cell death and DAPI staining to reveal apoptotic nuclei. Apoptotic nuclei were observed as obviously fragmented and degenerating nuclei, with small punctuate patterns of DAPI staining. Rosette regions from essentially serum free embryoid bodies in suspension were passaged further in the same medium, either withdrawing S18 or culturing the embryoid bodies for an additional 4 to 8 days in the presence of S18. Rosette regions were then seeded onto polyornithine/laminin coated slides for analysis of proliferation and differentiation to neural lineages.

[2] = sfEBMs at day 14, 48 hours exposure to 10 μM S18

## CCCCCCCC/C=C\CCCCCCCC(=O)NC(CO)CO [S18, N-(2-hydroxy-1-(hydroxymethyl)ethyl)-oleoylamide]
Oct4; 75 μM S18 for 24 hours, SDS-PAGE immunoblot
  Oct4 protein level by immunoblot relative to untreated control cells: 25%
Oct4; after treatment with S18
  decrease in Oct4 protein levels: 75%
sfEBMs in suspension; 10 μM S18, four days of treatment
  derivation of sfEBMs from monolayer crater cells: No viable embryoid bodies were observed
sfEBMs in suspension; 10 μM S18 in suspension, then seeded, anti-Oct4 immunostaining
  regions or cells of high Oct4 expression (residual pluripotent cells): no regions of high Oct4 expression could be detected; also recorded: do not exhibit any cells expressing high levels of Oct4
sfEBMs in suspension; day 28 after derivation, 8 days after withdrawal of S18
  mitotic activity of neural rosette precursor cells (PhosphoHistone H3): still mitotically active
sfEBMs in suspension; [2]
  apoptosis in the embryoid bodies: extensive apoptosis in the bodies
  morphology of rosette regions: morphologically normal
sfEBMs in suspension; sfEBMs from SSEA4 selected protease passaged HESCs, 10 μM S18 from day 6 to 9
  surviving cells in DAPI stained sections of sfEBMs: highly enriched population of neural rosette cells; also recorded: nearly all nuclei in the treated sfEBM were elongated in appearance; also recorded: Nearly all cells exhibited a radial nuclear staining
[1]; 6, 8 or 10 μM S18
  time until the effect was observed: ≤ 24 h
[1]; 6, 8 or 10 μM S18 for 36 hours
  effect on neural rosette structures: did not appear to be adversely affected
  induction of apoptosis in the culture: induced apoptosis of a large proportion of the culture
[1]; 36 hours exposure to 6 μM S18
  cell death: a high proportion of cells within these cultures have been killed
[1]; 36 hours exposure to 8 μM S18
  cell death: a high degree of cell death is apparent
